The source made the active and inactive calls. No cut-off for these calls is given here.
What was measured:
L6 = experiment: Cytotoxicity against rat L6 cells; type: cell-based
[1] = molecular target: Trypanothione reductase (Trypanosoma cruzi) (UniProt P28593); experiment: Inhibition of Trypanosoma cruzi recombinant trypanothione reductase at 100 uM by spectrophotometry using 50 uM trypanothione disulfide
[2] = molecular target: Trypanothione reductase (Trypanosoma cruzi) (UniProt P28593); experiment: Inhibition of Trypanosoma cruzi recombinant trypanothione reductase at 100 uM by spectrophotometry using 100 uM trypanothione disulfide
Plasmodium falciparum = experiment: Antiplasmodial activity against intraerythrocytic form of Plasmodium falciparum; type: functional, organism-based
Trypanosoma cruzi = experiment: Antitrypanosomal activity against Trypanosoma cruzi amastigotes infected in rat L6 cells; type: functional, organism-based
[3] = test system: Trypanosoma brucei rhodesiense; experiment: Antitrypanosomal activity against Trypanosoma brucei rhodesiense bloodstream trypomastigotes; type: functional, organism-based
Leishmania donovani = experiment: Antileishmanial activity against Leishmania donovani axenic amastigotes; type: functional, organism-based
Trypanothione reductase [4] = molecular target: T1, Trypanothione reductase (Trypanosoma cruzi, UniProt P28593); experiment: Inhibition of Trypanosoma cruzi recombinant trypanothione reductase by spectrophotometry-based mixed inhibition type assay
[5] = molecular target: Trypanothione reductase (Trypanosoma cruzi) (UniProt P28593); experiment: Inhibition of Trypanosoma cruzi recombinant trypanothione reductase at 25 uM by spectrophotometry using 100 uM trypanothione disulfide
Trypanothione reductase [6] = molecular target: T1, Trypanothione reductase; experiment: Inhibition of Trypanosoma cruzi recombinant trypanothione reductase by spectrophotometry
[7] = molecular target: T2, Glutathione reductase, mitochondrial (Homo sapiens) (UniProt P00390); experiment: Inhibition of human glutathione reductase at 10 uM by spectrophotometry in presence of 100 uM GSSG
T2 sequence (whole entry): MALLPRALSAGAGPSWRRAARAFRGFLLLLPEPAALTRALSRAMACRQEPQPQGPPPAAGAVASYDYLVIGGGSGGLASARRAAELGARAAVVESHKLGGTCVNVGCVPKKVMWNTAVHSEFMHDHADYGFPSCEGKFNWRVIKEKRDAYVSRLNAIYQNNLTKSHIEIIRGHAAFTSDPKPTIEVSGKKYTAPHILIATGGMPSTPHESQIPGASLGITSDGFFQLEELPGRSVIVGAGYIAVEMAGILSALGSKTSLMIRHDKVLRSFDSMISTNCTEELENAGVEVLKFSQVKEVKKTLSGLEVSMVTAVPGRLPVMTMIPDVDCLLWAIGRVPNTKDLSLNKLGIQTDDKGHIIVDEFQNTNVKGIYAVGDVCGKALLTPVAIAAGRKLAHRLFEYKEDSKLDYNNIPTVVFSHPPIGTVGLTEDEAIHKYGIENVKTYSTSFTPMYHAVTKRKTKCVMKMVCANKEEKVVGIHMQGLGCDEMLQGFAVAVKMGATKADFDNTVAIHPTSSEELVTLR

[8] = molecular target: Trypanothione reductase (Trypanosoma cruzi) (UniProt P28593); experiment: Inhibition of Trypanosoma cruzi recombinant trypanothione reductase at 25 uM by spectrophotometry using 50 uM trypanothione disulfide
Trypanothione reductase [9] = molecular target: T1, Trypanothione reductase; experiment: Inhibition of Trypanosoma cruzi recombinant trypanothione reductase by spectrophotometry-based non competitive inhibition type assay

Sequence of Trypanothione reductase (Trypanosoma cruzi) (P28593 whole entry, looked up): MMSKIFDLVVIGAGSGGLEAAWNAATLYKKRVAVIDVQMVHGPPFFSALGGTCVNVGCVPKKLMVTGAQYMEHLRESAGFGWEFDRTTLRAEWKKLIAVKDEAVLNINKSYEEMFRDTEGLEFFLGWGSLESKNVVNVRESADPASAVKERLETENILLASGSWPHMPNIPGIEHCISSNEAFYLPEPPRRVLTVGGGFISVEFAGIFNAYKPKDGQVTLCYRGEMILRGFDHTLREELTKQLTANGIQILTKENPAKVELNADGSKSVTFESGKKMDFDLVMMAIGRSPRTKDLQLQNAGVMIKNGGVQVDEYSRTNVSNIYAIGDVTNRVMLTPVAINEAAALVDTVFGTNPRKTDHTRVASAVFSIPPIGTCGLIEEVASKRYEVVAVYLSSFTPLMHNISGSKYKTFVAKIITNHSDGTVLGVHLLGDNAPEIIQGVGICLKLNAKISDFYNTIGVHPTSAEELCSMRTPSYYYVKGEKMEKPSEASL
T1 sequence (P28593 whole entry): as the sequence (P28593 whole entry, looked up) above

SMILES | IC50 (L6) | inhibition [1] | inhibition [2] | IC50 (Plasmodium falciparum) | IC50 (Trypanosoma cruzi) | IC50 [3] | IC50 (Leishmania donovani) | Ki (Trypanothione reductase [4]) | inhibition [5] | Ki (Trypanothione reductase [6]) | inhibition [7] | inhibition [8] | Ki (Trypanothione reductase [9])
COc1cc2nc(N3CCN(C(=O)[C@H]4Cc5ccccc5CN4)CC3)nc(N)c2cc1OC | 37.2 µM | 0% | 0% | 1.24 µM | 27.6 µM | 5.37 µM | > 67 µM |  |  |  |  |  | 
COc1cc2nc(N3CCN(C4=CC(=O)c5ccccc5C4=O)CC3)nc(N)c2cc1OC | 2.76 µM |  |  | 0.53 µM | 3.68 µM | 0.12 µM | 1.78 µM | 22 µM | 57% | 7.5 µM | inactive | 53% | 
COc1cc2nc(N3CCN(C(=O)[C@@H]4Cc5ccccc5CN4)CC3)nc(N)c2cc1OC | 14.2 µM | 0% | 0% | 2.1 µM | 14.3 µM | 1.81 µM | > 67 µM |  |  |  |  |  | 
COc1cc(C(=N)NC2CCC(CC3CCC(/N=C(\N)c4ccc(OCc5ccccc5)c(OC)c4)CC3)CC2)ccc1OCc1ccccc1 (stereo not drawn) |  |  |  |  |  |  |  | 16 µM |  |  |  |  | 
CN(C)CCOc1cc2nc(N3CCN(C4=CC(=O)c5ccccc5C4=O)CC3)nc(N)c2cc1OCCN(C)C |  |  |  |  |  |  |  |  |  |  |  |  | 11 µM
CN(C)CCOc1cc2nc(N3CCN(C(=O)Cc4c[nH]c5ccccc45)CC3)nc(N)c2cc1OCCN(C)C | > 161 µM | 44% | 33% | 2.19 µM | > 50 µM | 21.8 µM | > 54 µM |  |  |  |  |  | 
COC1=CC(=O)C=C(N2CCN(c3nc(N)c4cc(OC)c(OC)cc4n3)CC2)C1=O | 52.5 µM | 69% | 75% | 3.01 µM | 35.6 µM | 1.98 µM | 45.7 µM |  |  |  |  |  | 32 µM
COc1cc2nc(N3CCN(C(=O)Cc4c[nH]c5ccccc45)CC3)nc(N)c2cc1OC | 19.6 µM | 13% | 23% | 1.35 µM | 10.2 µM | 2.21 µM | 42.2 µM |  |  |  |  |  | 
